10 molecules from US12059425B2, “Heterocyclic compounds and uses thereof” (Kumquat Biosciences Inc., priority 2022, dated 2024) can be followed below.

Assay [1] concerns A549 cells. Put plainly: Ras cellular assay, cell proliferation A549. It counts as cell-based. The settings on record: Homo sapiens. In a few lines:
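G12S-mutant A549 cells (800/well) in RPMI-1640 plus 10% heat-inactivated FBS, standard or ultra-low attachment 384-well plates, dosed the day after plating with a 10-point 3-fold series. Viability by CellTiter-Glo luminescence about 6 days later; IC50 from four-parameter fit.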

In assay [2] the target is T1, K-Ras G12S (Homo sapiens, UniProt P01116, G12S).
T1 construct: made in house; host or cells: E. coli, e.g. BL21 (DE3)
Put plainly: PPI-HTRF assay, K-Ras G12S / SOS1 interaction. The format is biochemical. The settings on record: read-out: PPI-HTRF-5 nM (K-Ras G12S IC50). In a few lines:
(§1)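 Disruption of K-Ras–SOS1 binding is followed by FRET between a europium-labelled anti-GST antibody on GST-K-Ras and an XL665-labelled anti-His antibody on His-hSOS1. Protein concentrations are set in the same molar range as the IC50s measured. The 665/620 nm ratio gives IC50, with duplicates tested at 10, 2.5, 0.63, 0.16, 0.04 and 0.01 μM.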

Assay [3] has as its target T2, wildtype K-Ras (Homo sapiens, UniProt P01116).
T2 construct: made in house; host or cells: E. coli, e.g. BL21 (DE3)
Description: PPI-HTRF assay, wildtype K-Ras / SOS1 interaction. It counts as biochemical. The settings on record: HTRF, K-Ras wt; read-out: PPI-HTRF-5 nM (K-Ras wt IC50). In a few lines:
as §1
A general note: In TR-FRET formats the signal depends on donor and acceptor labels being close together.

The test system of assay [4] is SW620 cells. Put plainly: Ras cellular assay, cell proliferation SW620. It counts as cell-based. The settings on record: Homo sapiens, SW-620. From the text: For example, this assay can be also used to assess selective growth inhibition of a mutant Ras protein relative to a wildtype, or relative to a different mutant Ras protein.
Assay [5] relates to GP2D cells. Description: Ras cellular assay, cell proliferation GP2D. The format is cell-based. In a few lines: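 Growth inhibition read by CellTiter-Glo luminescence roughly 5 days after compound addition, which followed overnight plating of G12D-mutant GP2D cells (e.g., 800 per well). Compounds were tested as a serial dilution (e.g., 9 points, 3-fold), with IC50 fitted by four-parameter model.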

The target in assay [6] is T3, K-Ras G12V (Homo sapiens, UniProt P01116, G12V).
T3 construct: made in house; host or cells: E. coli, e.g. BL21 (DE3)
Put plainly: PPI-HTRF assay, K-Ras G12V / SOS1 interaction. The settings on record: HTRF, K-Ras G12V; read-out: PPI-HTRF-5 nM (K-Ras G12V IC50). The format is biochemical. In a few lines: as §1

The target in assay [7] is T4, K-Ras G12D (Homo sapiens, UniProt P01116, G12D).
T4 construct: made in house; host or cells: E. coli, e.g. BL21 (DE3)
Description: PPI-HTRF assay, K-Ras G12D / SOS1 interaction. The settings on record: HTRF, K-Ras G12D; read-out: PPI-HTRF-5 nM (K-Ras G12D IC50). The format is biochemical. In a few lines:
as §1

Some results are limits rather than exact numbers.

T3 sequence (P01116 1-188 isoform P01116-2 G12V): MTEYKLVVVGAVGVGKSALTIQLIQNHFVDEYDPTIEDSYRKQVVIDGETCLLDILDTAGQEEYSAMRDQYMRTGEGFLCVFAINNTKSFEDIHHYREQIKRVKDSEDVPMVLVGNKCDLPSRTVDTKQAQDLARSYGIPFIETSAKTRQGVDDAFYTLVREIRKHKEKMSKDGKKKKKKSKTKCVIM
T4 sequence (P01116 1-188 isoform P01116-2 G12D): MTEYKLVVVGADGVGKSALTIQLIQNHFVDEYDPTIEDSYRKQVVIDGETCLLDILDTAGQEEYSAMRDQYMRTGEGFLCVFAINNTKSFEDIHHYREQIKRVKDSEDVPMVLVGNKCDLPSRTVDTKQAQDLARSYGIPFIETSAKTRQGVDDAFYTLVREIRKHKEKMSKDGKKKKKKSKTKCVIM
T2 sequence (P01116 1-188 isoform P01116-2): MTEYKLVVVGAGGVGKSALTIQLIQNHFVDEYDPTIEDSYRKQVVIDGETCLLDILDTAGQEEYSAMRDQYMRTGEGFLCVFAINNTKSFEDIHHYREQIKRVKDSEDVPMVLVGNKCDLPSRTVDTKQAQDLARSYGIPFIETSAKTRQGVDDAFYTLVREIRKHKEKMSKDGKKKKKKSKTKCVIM
T1 sequence (P01116 1-188 isoform P01116-2 G12S): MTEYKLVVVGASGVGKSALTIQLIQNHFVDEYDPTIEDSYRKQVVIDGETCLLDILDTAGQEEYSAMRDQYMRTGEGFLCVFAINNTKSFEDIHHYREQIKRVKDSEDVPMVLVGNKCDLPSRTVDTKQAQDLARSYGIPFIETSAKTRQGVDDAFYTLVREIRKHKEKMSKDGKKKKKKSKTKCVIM

Regarding `N#Cc1c(N)sc2c(F)ccc(-c3c(Cl)c4c5c(nc(OC[C@@]67CCCN6C[C@H](F)C7)nc5c3F)N3[C@H](CO4)C[C@@H]4OCC[C@@H]43)c12` [compound 133, 2-amino-4-((5aS,6aS,9aS)-3-chloro-1-fluoro-12-(((2R,7aS)-2-fluorotetrahydro-1H-pyrrolizin-7a(5H)-yl)methoxy)-5a,6,6a,8,9,9a-hexahydro-5H-furo[2″,3″:4′,5′]pyrrolo[2′,1′:3,4][1,4]oxazepino[5,6,7-de]quinazolin-2-yl)-7-fluorobenzo[b]thiophene-3-carbonitrile], the IC50 in assay [1], in assay [2], in assay [3], in assay [4], in assay [5] and in assay [6] was less than 5 µM in each case. For the same molecule, the IC50 in assay [7] is less than 5 µM.
As to `N#Cc1c(N)sc2c(F)ccc(-c3c(Cl)c4c5c(nc(OC[C@@]67CCCN6C[C@H](F)C7)nc5c3F)N3Cc5ccnn5CCC3CO4)c12` (stereo partly drawn) [compound 134, 2-amino-4-(3-chloro-1-fluoro-15-(((2R,7aS)-2-fluorotetrahydro-1H-pyrrolizin-7a(5H)-yl)methoxy)-5,5a,6,7-tetrahydro-12H-pyrazolo[5″,1″:3′,4′][1,4]diazepino[7′,1′:3,4][1,4]oxazepino[5,6,7-de]quinazolin-2-yl)-7-fluorobenzo[b]thiophene-3-carbonitrile], the IC50 in assay [1], in assay [2], in assay [3], in assay [4], in assay [5] and in assay [6] was less than 5 µM each time. The IC50 in assay [7] was less than 5 µM.
Turning to `CC1(O)CCN2c3nc(OC[C@@]45CCCN4C[C@H](F)C5)nc4c(F)c(-c5ccc(F)c6sc(N)c(C#N)c56)c(Cl)c(c34)OCC2C1` (stereo partly drawn) [compound 136, 2-amino-4-(3-chloro-1-fluoro-12-(((2R,7aS)-2-fluorotetrahydro-1H-pyrrolizin-7a(5H)-yl)methoxy)-7-hydroxy-7-methyl-5,5a,6,7,8,9-hexahydropyrido[2′,1′:3,4][1,4]oxazepino [5,6,7-de]quinazolin-2-yl)-7-fluorobenzo[b]thiophene-3-carbonitrile], the IC50 in assay [1], in assay [2], in assay [3], in assay [4], in assay [5] and in assay [6] was less than 5 µM throughout. For the same molecule, the IC50 in assay [7] is less than 5 µM.
With `N#Cc1c(N)sc2c(F)ccc(-c3c(Cl)c4c5c(nc(OC[C@@]67CCCN6C[C@H](F)C7)nc5c3F)N3CCCC3CO4)c12` (stereo partly drawn) [compound 137, 2-amino-4-(6-chloro-4-fluoro-2-(((2R,7aS)-2-fluorotetrahydro-1H-pyrrolizin-7a(5H)-yl)methoxy)-8a,9,10,11-tetrahydro-8H-pyrrolo[2′,1′:3,4][1,4]oxazepino[5,6,7-de]quinazolin-5-yl)-7-fluorobenzo[b]thiophene-3-carbonitrile], the IC50 in assay [1], in assay [2], in assay [3], in assay [4], in assay [5] and in assay [6] was less than 5 µM in each case. Also, the concentration for half-maximal inhibition (IC50) in assay [7] is less than 5 µM.
Consider `COCC1CCC2COc3c(Cl)c(-c4ccc(F)c5sc(N)c(C#N)c45)c(F)c4nc(OC[C@@]56CCCN5C[C@H](F)C6)nc(c34)N12` (stereo partly drawn) [compound 138, 2-amino-4-(6-chloro-4-fluoro-2-(((2R,7aS)-2-fluorotetrahydro-1H-pyrrolizin-7a(5H)-yl)methoxy)-11-(methoxymethyl)-8a,9,10,11-tetrahydro-8H-pyrrolo[2′,1′:3,4][1,4]oxazepino[5,6,7-de]quinazolin-5-yl)-7-fluorobenzo[b]thiophene-3-carbonitrile], for which the IC50 in assay [1], in assay [2], in assay [3], in assay [4], in assay [5] and in assay [6] was less than 5 µM throughout. For the same molecule, in assay [7], the half-maximal inhibitory concentration (IC50) was less than 5 µM.
Consider `N#Cc1c(N)sc2c(F)ccc(-c3c(Cl)c4c5c(nc(OC[C@@]67CCCN6C[C@H](F)C7)nc5c3F)N3CC[C@@H]3CO4)c12` [compound 139, 2-amino-4-((11aR)-9-chloro-7-fluoro-5-(((2R,7aS)-2-fluorotetrahydro-1H-pyrrolizin-7a(5H)-yl)methoxy)-1,2,11,11a-tetrahydroazeto[2′,1′:3,4][1,4]oxazepino [5,6,7-de]quinazolin-8-yl)-7-fluorobenzo[b]thiophene-3-carbonitrile], for which the IC50 is more than 5 µM in assay [1]; less than 5 µM in assay [2]; less than 5 µM in assay [3]; less than 5 µM in assay [4]; less than 5 µM in assay [5]; less than 5 µM in assay [6]. In addition, the 50% inhibitory concentration (IC50) in assay [7] was less than 5 µM.
`CN1c2nc(OC[C@@]34CCCN3C[C@H](F)C4)nc3c(F)c(-c4ccc(F)c5sc(N)c(C#N)c45)c(Cl)c(c23)OCC2CNCC21` (stereo partly drawn) [compound 140, 2-amino-4-(6-chloro-4-fluoro-2-(((2R,7aS)-2-fluorotetrahydro-1H-pyrrolizin-7a(5H)-yl)methoxy)-12-methyl-8a,9,10,11,11a,12-hexahydro-8H-pyrrolo[3′,4′:6,7][1,5]oxazocino[4,3,2-de]quinazolin-5-yl)-7-fluorobenzo[b]thiophene-3-carbonitrile]: the IC50 in assay [1], in assay [2], in assay [3], in assay [4], in assay [5] and in assay [6] was less than 5 µM each time. For the same molecule, the half-inhibitory concentration (IC50) in assay [7] was less than 5 µM.
Consider `CN1c2nc(OC[C@@]34CCCN3C[C@H](F)C4)nc3c(F)c(-c4ccc(F)c5sc(N)c(C#N)c45)c(Cl)c(c23)OCC2COCC21` (stereo partly drawn) [compound 141, 2-amino-4-(6-chloro-4-fluoro-2-(((2R,7aS)-2-fluorotetrahydro-1H-pyrrolizin-7a(5H)-yl)methoxy)-12-methyl-8a,9,11a,12-tetrahydro-8H,11H-furo[3′,4′:6,7][1,5]oxazocino[4,3,2-de]quinazolin-5-yl)-7-fluorobenzo[b]thiophene-3-carbonitrile], for which the IC50 in assay [1], in assay [2], in assay [3], in assay [4], in assay [5] and in assay [6] was less than 5 µM in each case. In addition, the IC50 in assay [7] was less than 5 µM.
Regarding `N#Cc1c(N)sc2c(F)ccc(-c3c(Cl)c4c5c(nc(OC[C@@]67CCCN6C[C@H](F)C7)nc5c3F)N3CCNCCC3CO4)c12` (stereo partly drawn) [compound 142, 2-amino-4-(6-chloro-4-fluoro-2-(((2R,7aS)-2-fluorotetrahydro-1H-pyrrolizin-7a(5H)-yl)methoxy)-8a,9,10,11,12,13-hexahydro-8H-[1,4]diazepino[7′,1′:3,4][1,4]oxazepino [5,6,7-de]quinazolin-5-yl)-7-fluorobenzo[b]thiophene-3-carbonitrile], the IC50 in assay [1], in assay [2], in assay [3], in assay [4], in assay [5] and in assay [6] was less than 5 µM throughout. Also, the IC50 in assay [7] was less than 5 µM.
As to `N#Cc1c(N)sc2c(F)ccc(-c3c(Cl)c4c5c(nc(OC[C@@]67CCCN6C[C@H](F)C7)nc5c3F)N3CCC[C@@H]3CO4)c12` [compound 144, 2-amino-4-((12aR)-10-chloro-8-fluoro-6-(((2R,7aS)-2-fluorotetrahydro-1H-pyrrolizin-7a(5H)-yl)methoxy)-2,3,12,12a-tetrahydro-1H-pyrrolo[2′,1′:3,4][1,4]oxazepino[5,6,7-de]quinazolin-9-yl)-7-fluorobenzo[b]thiophene-3-carbonitrile], the IC50 in assay [1], in assay [2], in assay [3], in assay [4], in assay [5] and in assay [6] was less than 5 µM in each case. Further, the IC50 in assay [7] is less than 5 µM.

As usually defined, the IC50 is the midpoint of a concentration-inhibition curve.
